Common to all, as to experiment: NCI anticancer screen, dose series, 48 h
Test [1] deals with NCI-H23 lung.
In test [2] the test system is MCF7 breast.
The subject of test [3] is NCI/ADR-RES ovarian.
In test [4] the test system is DU-145 prostate.
For test [5], the system named is SK-OV-3 ovarian.
For test [6], the system named is A549 NSCLC.
The test system of test [7] is ACHN renal.
Test [8] relates to K-562 leukemia.
The subject of test [9] is SR leukemia.
Test [10] relates to BT-549 breast.

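96-well plates; 48 h exposure; 5 concentrations. Endpoints by linear interpolation between flanking doses. Not reached: highest tested concentration assigned. Here, GI50 denotes the concentration required for 50% inhibition of growth. TGI marks complete inhibition of growth.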

As for `CCCCCCCC(=O)OCC(=O)[C@]1(O)Cc2c(O)c3c(c(O)c2[C@@H](OC2CC(N)C(O)C(C)O2)C1)C(=O)c1c(OC)cccc1C3=O` (stereo not given in full), the GI50 is 0.0552 µM in [1], 1.67 µM in [3], 0.0266 µM in [4] and 0.135 µM in test [5]. Further, the TGI in [1] amounted to 0.526 µM; in test [2], 0.417 µM; in [3] it was 4.41 µM; in test [4] it was 0.284 µM; in [5], 0.879 µM.
Turning to `O=C(N/N=C/c1cc(Cl)cc(Cl)c1[O-])c1ccccc1.O=C(N/N=C/c1cc(Cl)cc(Cl)c1[O-])c1ccccc1.[Co+2]`, the GI50 in test [1] is 21 µM; in [6], 28.8 µM; in [7] it was 16.7 µM; in test [8] it was 15.6 µM; in test [5], 40.9 µM. The TGI was over 100 µM in test [1]; over 100 µM in test [6]; over 100 µM in test [7]; 76.7 µM in test [8]; over 100 µM in [5].
Turning to `CCOC(=O)C(CNc1ccc(O)cc1)NC(=O)c1ccccc1` (stereo not given), the TGI in [1], in [6], in test [7], in test [8], in test [9] and in test [5] was over 100 µM throughout.
Consider `N#Cc1ccc2cc3c(cc2c1)OCO3`, for which the TGI in test [1], in [7], in test [8] and in [5] was over 100 µM throughout.
`C/C=C/COC(=O)CO[N+](=O)[O-]`: the TGI in test [1], in test [6], in test [7], in test [8], in test [9] and in test [5] was over 100 µM each time.
Regarding `CN(/N=C/c1cccc2cccnc12)c1c([N+](=O)[O-])cc([N+](=O)[O-])cc1[N+](=O)[O-]`, the TGI in test [1], in test [6], in test [7], in test [8] and in [5] was over 100 µM each time.
With `COc1ccccc1NS(=O)(=O)c1ccc2oc(SC(C)C)nc2c1`, the GI50 is 8.66 µM in [1]; 15.5 µM in test [2]; 14.8 µM in [3]; 16.3 µM in [6]; 21 µM in [7]; 3.73 µM in [8]. Moreover, the figures for the GI50 in [9], in [4] and in test [5] were 3.62 µM, 31.8 µM and 33.5 µM, respectively. Also, the TGI in test [1] is over 100 µM; in test [2], over 100 µM; in [3], 84.1 µM; in [6], 88.6 µM; in test [7], over 100 µM; in test [8], over 100 µM. The TGI in test [9] is 24.4 µM; in test [4] it was over 100 µM; in test [5], over 100 µM.
Regarding `C=C(C)C(=O)O[C@@H]1C/C(C)=C\[C@H](OC(C)=O)C[C@](C)(O)/C=C2/OC(=O)C(COC(C)=O)=C21`, the TGI in test [1] was 5.21 µM; in test [2] it was over 36.5 µM; in test [6], over 23.3 µM; in test [7] it was 1.87 µM; in test [8], 0.879 µM; in [4], 7.13 µM. In addition, the TGI in test [5] was determined as 18.7 µM; in test [10] it was 3.91 µM.
For the compound `O=C(c1ccccc1)n1c(-c2ccccc2)cs/c1=N\S(=O)(=O)c1ccc(N2N=C3c4ccccc4CC3C2c2cccs2)cc1` (stereo not given), the GI50 is 13 µM in test [1]; over 100 µM in test [2]; over 100 µM in [3]; 39.5 µM in test [6]; 43.8 µM in test [7]; 27.6 µM in [8]. Moreover, the GI50 in test [4] is 47 µM; in test [5] it was over 100 µM; in [10], 67.9 µM. Besides, the TGI in [1] is 39.4 µM; in test [2], over 100 µM; in [3], over 100 µM; in test [6], over 100 µM; in test [7], over 100 µM; in [8] it was over 100 µM. Further, the TGI in test [4], in test [5] and in [10] was over 100 µM in each case.
For the compound `Cc1ccc(C)c(NC(=O)CC2SC(=Nc3ccccc3Cl)NC2=O)c1` (stereo not given), the TGI in [1] is over 100 µM; in [6] it was over 100 µM; in test [7], over 100 µM; in [9], 55.4 µM; in test [5] it was over 100 µM.
In the case of `COc1ccc(C(CC(=O)c2ccccc2)C(C(=O)c2ccccc2)C(c2ccc(OC)cc2)C2C(=O)NC(=S)NC2=O)cc1` (stereo not given), the GI50 in test [1] is 14.3 µM; in test [2], 16.1 µM; in test [3], 10.7 µM; in test [6], 8.96 µM; in test [7], 12.3 µM; in test [8] it was 24.8 µM. The values for the GI50 in test [4], in test [5] and in test [10] were 10.5 µM, over 100 µM and 12.8 µM, respectively. Moreover, the TGI in test [1] is 46.6 µM; in test [2] it was over 100 µM; in [3], 34.1 µM; in test [6] it was 75.7 µM; in test [7], 50.9 µM; in test [8], over 100 µM. Moreover, the TGI in [4] is 32 µM; in test [5], over 100 µM; in test [10] it was 49.8 µM.
Turning to `C[C@@H]1COCCN1c1cc(C2([S@@](C)(=N)=O)CC2)nc(-c2ccnc3[nH]ccc23)n1`, the GI50 was 3.3 µM in [1]; 0.956 µM in [2]; 33.9 µM in test [3]; 4.27 µM in [6]; 2.17 µM in test [7]; 8.91 µM in test [8]. Besides, the GI50 in test [4] was 4.71 µM; in [5] it was 2.95 µM; in [10], 2.68 µM. For the same compound, the TGI is 45.2 µM in [1]; over 100 µM in test [2]; over 100 µM in test [3]; over 100 µM in test [6]; over 51.3 µM in [7]; over 100 µM in test [8]. Also, the TGI in test [4] is over 100 µM; in test [5], 27.4 µM; in [10], 23.7 µM.

The values above are taken from PubChem BioAssay (NCI).
